Each molecule was assayed on WNT signaling (TopGFP reporter in Human Colonic Epithelial Cells (HCEC)) (assay: WNT Reporter Assay (TopGFP reporter)). Conditions: Homo sapiens, stimulated with 10 μM CHIR99021, 24 hours, TopGFP/mCherry.
Format: cell-based
Method: WNT Reporter Assay: Human Colonic Epithelial Cells (HCEC) were cultured using 1×DMEM supplemented with 1% penicillin/streptomycin, 1% Glutamax, and 10% fetal bovine serum in 5% CO2 at 37° C. These cells were previously engineered to express the TopGFP reporter (Addgene #24304) using second generation lentiviral techniques. For the Wnt reporter assay, cells were seeded at 2000 cells per well in a 384-well black screenstar imaging microplates (Greiner #781866) and allowed to adhere overnight. The following day cells were stimulated to induce the Wnt pathway using 10 μM CHIR99021 (Selleck #S1263). […] Cells were incubated for 24 hours before fixing for 30 minutes with 4% paraformaldehyde/sucrose solution. Cells were permeabilized with 0.1% triton-x in PBS for 10 minutes and stained for DAPI for 30 minutes. Plates were imaged on a Nikon Ti2 Eclipse fluorescent microscope for DAPI, GFP, and mCherry. Using Nikon Elements software for analysis, nuclei were segmented based on DAPI and mean object intensity per cell for both TopGFP and the internal control (mCherry) was measured. To calculate the amount of Wnt activity, we took the mean intensity of TopGFP and divided it by the mean intensity of mCherry per cell to normalize individual cells. Curves and EC50s were plotted and calculated using Graphpad Prism software.
With `Nc1cc(-c2ccc3ncnc(N4CCN(c5ccccc5)CC4)c3n2)ccn1` [Compound 4, 4-(4-(4-phenylpiperazin-1-yl)pyrido[3,2-d]pyrimidin-6-yl)pyridin-2-amine] the EC50 was less than 100 nM.
`Nc1cc(-c2ccc3ncnc(N4CCN(c5cccnc5)CC4)c3c2)ccn1` [Compound 37, 4-(4-(4-(pyridin-3-yl)piperazin-1-yl)quinazolin-6-yl)pyridin-2-amine] showed an EC50 of less than 100 nM.
`Nc1cc(-c2ccc3ncnc(N4CCN(c5ccc(O)cc5)CC4)c3n2)ccn1` [Compound 28, 4-(4-(6-(2-aminopyridin-4-yl)pyrido[3,2-d]pyrimidin-4-yl)piperazin-1-yl)phenol] showed an EC50 of less than 100 nM.
Work on `Nc1cc(-c2ccc3ncnc(N4CCN(c5ncccn5)CC4)c3c2)ccn1` [Compound 10, 4-(4-(4-(pyrimidin-2-yl)piperazin-1-yl)quinazolin-6-yl)pyridin-2-amine] yielded an EC50 of 100 to 1000 nM.
In the case of `Nc1cc(-c2ccc3ncnc(N4[C@@H]5CC[C@H]4CN(c4ccccn4)C5)c3c2)ccn1` [Compound 54, 4-(4-((1R,5S)-3-(pyridin-2-yl)-3,8-diazabicyclo[3.2.1]octan-8-yl)quinazolin-6-yl)pyridin-2-amine], the EC50 is reported as 100 to 1000 nM.
In the case of `Fc1ccccc1N1CCN(c2ncnc3ccc(-c4cnoc4)nc23)CC1` [Compound 40, 4-(4-(4-(2-fluorophenyl)piperazin-1-yl)pyrido[3,2-d]pyrimidin-6-yl)isoxazole], the EC50 is reported as 100 to 1000 nM.
With `Fc1ccc(CN2CCN(c3ncnc4ccc(-c5c[nH]c6ncccc56)cc34)CC2)cc1` [Compound 49, 4-(4-(4-fluorobenzyl)piperazin-1-yl)-6-(1H-pyrrolo[2,3-b]pyridin-3-yl)quinazoline] the EC50 was less than 100 nM.
`Nc1cc(-c2ccc3nccc(N4CCN(c5ccccc5)CC4)c3c2)ccn1` [Compound 25, 4-(4-(4-phenylpiperazin-1-yl)quinolin-6-yl)pyridin-2-amine] showed an EC50 of less than 100 nM.
`Nc1cc(-c2ccc3ncnc(N4CCN(c5ccc(C(F)(F)F)cn5)CC4)c3n2)ccn1` [Compound 16, 4-(4-(4-(5-(trifluoromethyl)pyridin-2-yl)piperazin-1-yl)pyrido[3,2-d]pyrimidin-6-yl)pyridin-2-amine] was tested, and the EC50 was less than 100 nM.
With `Nc1cc(-c2ccc3ncnc(N4CCN(c5ccc(F)cc5)CC4)c3c2)ccn1` [Compound 31, 4-(4-(4-(4-fluorophenyl)piperazin-1-yl)quinazolin-6-yl)pyridin-2-amine] the EC50 was 100 to 1000 nM.
`Cc1cc(-c2ccc3ncnc(N4CCN(c5ccccn5)CC4)c3c2)ccn1` [Compound 12, 6-(2-methylpyridin-4-yl)-4-(4-(pyridin-2-yl)piperazin-1-yl)quinazoline] was tested, and the EC50 was greater than 1000 nM.
In the case of `Nc1cc(-c2ccc3ncnc(N4CCN(c5ccccn5)CC4)c3c2)ccn1` [Compound 3, 4-(4-(4-(pyridin-2-yl)piperazin-1-yl)quinazolin-6-yl)pyridin-2-amine], the EC50 is reported as less than 100 nM.
`Nc1cc(-c2ccc3ncnc(N4CCN(c5ccccc5)CC4)c3c2)ccn1` [Compound 2, 4-(4-(4-phenylpiperazin-1-yl)quinazolin-6-yl)pyridin-2-amine] was tested, and the EC50 was less than 100 nM.
`Nc1cc(-c2ccc3ncnc(N4CCCN(c5ccccn5)CC4)c3c2)ccn1` [Compound 56, 4-(4-(4-(pyridin-2-yl)-1,4-diazepan-1-yl)quinazolin-6-yl)pyridin-2-amine] gave an EC50 greater than 1000 nM.
In the case of `Nc1cc(-c2ccc3ncnc(N4CCN(c5ccccc5)C(=O)C4)c3c2)ccn1` [Compound 38, 4-(6-(2-aminopyridin-4-yl)quinazolin-4-yl)-1-phenylpiperazin-2-one], the EC50 is reported as 100 to 1000 nM.
With `Nc1cc(-c2ccc3nccc(N4CCN(c5ccccc5)CC4)c3n2)ccn1` [Compound 53, 4-(8-(4-phenylpiperazin-1-yl)-1,5-naphthyridin-2-yl)pyridin-2-amine] the EC50 was less than 100 nM.
Work on `O=C1CN(c2ncnc3ccc(-c4cn[nH]c4)cc23)CCN1c1ccccc1` [Compound 32, 4-(6-(1H-pyrazol-4-yl)quinazolin-4-yl)-1-phenylpiperazin-2-one] yielded an EC50 of less than 100 nM.
Work on `Fc1ccc(CN2CCCN(c3ncnc4ccc(-c5cn[nH]c5)cc34)CC2)cc1` [Compound 36, 4-(4-(4-fluorobenzyl)-1,4-diazepan-1-yl)-6-(1H-pyrazol-4-yl)quinazoline] yielded an EC50 of less than 100 nM.
`Cc1ccc(N2CCN(c3ccnc4ccc(-c5ccnc(N)c5)cc34)CC2)c(C)c1` [Compound 34, 4-(4-(4-(2,4-dimethylphenyl)piperazin-1-yl)quinolin-6-yl)pyridin-2-amine] gave an EC50 of 100 to 1000 nM.
Molecule `Nc1cc(-c2ccc3ncnc(N4CCN(C5COC5)CC4)c3c2)ccn1` [Compound 11, 4-(4-(4-(oxetan-3-yl)piperazin-1-yl)quinazolin-6-yl)pyridin-2-amine] has an EC50 greater than 1000 nM.
`Nc1cc(-c2ccc3ncnc(N4CCN(c5ncccc5F)CC4)c3c2)ccn1` [Compound 61, 4-(4-(4-(3-fluoropyridin-2-yl)piperazin-1-yl)quinazolin-6-yl)pyridin-2-amine] gave an EC50 of less than 100 nM.
With `C[C@@H]1CN(c2ccccn2)CCN1c1ncnc2ccc(-c3ccnc(N)c3)cc12` [Compound 44, (R)-4-(4-(2-methyl-4-(pyridin-2-yl)piperazin-1-yl)quinazolin-6-yl)pyridin-2-amine] the EC50 was 100 to 1000 nM.
For `Nc1cc(-c2ccc3ncnc(N4CCC(c5ccccc5F)CC4)c3c2)ccn1` [Compound 48, 4-(4-(4-(2-fluorophenyl)piperidin-1-yl)quinazolin-6-yl)pyridin-2-amine], the EC50 was 100 to 1000 nM.
In the case of `FC(F)c1cc(-c2ccc3ncnc(N4CCN(c5ccccn5)CC4)c3c2)ccn1` [Compound 8, 6-(2-(difluoromethyl)pyridin-4-yl)-4-(4-(pyridin-2-yl)piperazin-1-yl)quinazoline], the EC50 is reported as 100 to 1000 nM.
Molecule `Nc1cc(-c2ccc3ncnc(N4CCC(c5ccccc5)CC4)c3c2)ccn1` [Compound 51, 4-(4-(4-phenylpiperidin-1-yl)quinazolin-6-yl)pyridin-2-amine] has an EC50 of 100 to 1000 nM.
For `Fc1cc(-c2ccc3ncnc(N4CCN(c5ccccn5)CC4)c3c2)ccn1` [Compound 13, 6-(2-fluoropyridin-4-yl)-4-(4-(pyridin-2-yl)piperazin-1-yl)quinazoline], the EC50 was greater than 1000 nM.
In the case of `Nc1cc(-c2ccc3ncnc(N4CCN(c5ccncc5)CC4)c3c2)ccn1` [Compound 6, 4-(4-(4-(pyridin-4-yl)piperazin-1-yl)quinazolin-6-yl)pyridin-2-amine], the EC50 is reported as 100 to 1000 nM.
`CC(=O)N1CCN(c2ncnc3ccc(-c4ccnc(N)c4)cc23)CC1` [Compound 1, 1-(4-(6-(2-aminopyridin-4-yl)quinazolin-4-yl)piperazin-1-yl)ethan-1-one] gave an EC50 of 100 to 1000 nM.
Molecule `Nc1cc(-c2ccc3ncnc(N4CCN(Cc5ccc(F)cc5)CC4)c3c2)ccn1` [Compound 43, 4-(4-(4-(4-fluorobenzyl)piperazin-1-yl)quinazolin-6-yl)pyridin-2-amine] has an EC50 of 100 to 1000 nM.
`Nc1cc(-c2ccc3ncnc(N4CCN(c5ccc(F)cc5F)CC4)c3c2)ccn1` [Compound 39, 4-(4-(4-(2,4-difluorophenyl)piperazin-1-yl)quinazolin-6-yl)pyridin-2-amine] was tested, and the EC50 was 100 to 1000 nM.
With `Nc1cc(-c2ccc3ncnc(N4CCN(C(=O)c5ccccc5F)CC4)c3c2)ccn1` [Compound 46, (4-(6-(2-aminopyridin-4-yl)quinazolin-4-yl)piperazin-1-yl)(2-fluorophenyl)methanone] the EC50 was greater than 1000 nM.
`Nc1cc(-c2ccc3ncnc(N4C[C@H]5CN(c6ccccn6)C[C@H]5C4)c3c2)ccn1` [Compound 66, 4-(4-((3aR,6aS)-5-(pyridin-2-yl)hexahydropyrrolo[3,4-c]pyrrol-2(1H)-yl)quinazolin-6-yl)pyridin-2-amine] gave an EC50 of 100 to 1000 nM.
For `O=c1ccccn1C1CCN(c2ncnc3ccc(-c4c[nH]c5ncccc45)cc23)CC1` [Compound 58, 1-(1-(6-(1H-pyrrolo[2,3-b]pyridin-3-yl)quinazolin-4-yl)piperidin-4-yl)pyridin-2(1H)-one], the EC50 was less than 100 nM.
`Nc1cc(-c2ccc3ncnc(N4C[C@H]5C[C@@H]4CN5c4ccccn4)c3c2)ccn1` [Compound 55, 4-(4-((1R,4R)-5-(pyridin-2-yl)-2,5-diazabicyclo[2.2.1]heptan-2-yl)quinazolin-6-yl)pyridin-2-amine] showed an EC50 greater than 1000 nM.
In the case of `Nc1cc(-c2ccc3nccc(N4CCN(c5ccccn5)CC4)c3c2)ccn1` [Compound 29], the EC50 is reported as less than 100 nM.
`COc1cc2c(cc1OC)CN(c1ncnc3ccc(-c4cnn(C)c4)cc13)CC2` [Compound 47, 4-(6,7-dimethoxy-3,4-dihydroisoquinolin-2(1H)-yl)-6-(1-methyl-1H-pyrazol-4-yl)quinazoline] showed an EC50 greater than 1000 nM.
With `COc1cc2c(cc1OC)CN(c1ncnc3ccc(-c4ccnc(N)c4)cc13)CC2` [Compound 35, 4-(4-(6,7-dimethoxy-3,4-dihydroisoquinolin-2(1H)-yl)quinazolin-6-yl)pyridin-2-amine] the EC50 was 100 to 1000 nM.
In the case of `Nc1cc(-c2ccc3ncnc(N4CCCN(Cc5ccc(F)cc5)CC4)c3c2)ccn1` [Compound 41, 4-(4-(4-(4-fluorobenzyl)-1,4-diazepan-1-yl)quinazolin-6-yl)pyridin-2-amine], the EC50 is reported as 100 to 1000 nM.
With `Cn1cc(-c2ccc3ncnc(N4CCN(Cc5ccc(F)cc5)CC4)c3c2)cn1` [Compound 42, 4-(4-(4-fluorobenzyl)piperazin-1-yl)-6-(1-methyl-1H-pyrazol-4-yl)quinazoline] the EC50 was greater than 1000 nM.
`O=c1ccccn1C1CCN(c2ncnc3ccc(-c4cn[nH]c4)cc23)CC1` [Compound 59, 1-(1-(6-(1H-pyrazol-4-yl)quinazolin-4-yl)piperidin-4-yl)pyridin-2(1H)-one] was tested, and the EC50 was less than 100 nM.
`Nc1cc(-c2ccc3ncnc(N4CCN(c5ccncn5)CC4)c3c2)ccn1` [Compound 9, 4-(4-(4-(pyrimidin-4-yl)piperazin-1-yl)quinazolin-6-yl)pyridin-2-amine] gave an EC50 of 100 to 1000 nM.

Same assay, conditions: stimulated with 10 μM CHIR99021, 24 hours, TopGFP/mCherry
“4-(4-(2-fluorophenyl)piperazin-1-yl)-6-(1H-pyrazol-3-yl)pyrido[3,2-d]pyrimidine [Compound 23]” was tested, and the EC50 was less than 100 nM.
Molecule “6-(1H-pyrazol-3-yl)-4-(4-(5-(trifluoromethyl)pyridin-2-yl)piperazin-1-yl)pyrido[3,2-d]pyrimidine [Compound 22]” has an EC50 of less than 100 nM.
For “6-(1H-pyrazol-3-yl)-4-(4-(pyridin-2-yl)piperazin-1-yl)pyrido[3,2-d]pyrimidine [Compound 18]”, the EC50 was less than 100 nM.
